We go through five molecules from US10350189B2, “Method for transnasal delivery of blood-brain barrier permeation agent and therapeutic agent” (priority 2015, dated 2019).

The conditions of data set [1]: cited from earlier work.
Data set [2] relates to Male Sprague-Dawley rats. The data set can be described thus: Heart rate after intranasal application to the SPG. The format is in vivo, rat. Here is the method: (§1) Male Sprague-Dawley rats (Harlan, Indianapolis, Ind.) weighing 300-350 g were allowed to acclimate for at least 4 days prior to experimentation. Rats were housed 2 per cage in a room with controlled light (6:00 a.m. to 6:00 p.m.), humidity (50±10%) and temperature (23±1° C.). Animal care and use for experimental procedures was approved by and in accordance with the guidelines of the Midwestern University Institutional Animal Care and Use Committee (IACUC).
(§2) All drugs/solutions were freshly prepared on the day of administration using sterile saline (0.9% NaCl, Hospira, Inc., Lake Forest, Ill.). Urethane (ethyl carbamate, Sigma-Aldrich, St. Louis, Mo.) was administered intraperitoneally (IP) at a dose of 1.5 g/kg. […] Evans blue (5 mL/kg) was administered intravenously (IV) via left femoral vein cannula.
(§3) Two studies were designed for this project, using a total of 42 rats.
(§4) Rats were anesthetized with urethane (1.5 g/kg, IP) and immobilized on a surgical board equipped with a controlled heating pad. Core temperature, measured via rectal probe, was maintained at 37±1° C. In order to maintain blood pO2, pCO2 and pH, and to avoid the effect of respiration on blood pressure (BP) and heart rate (HR), animals were kept on artificial respiration via an endotracheal cannula connected to a rodent ventilator (Model 683, Harvard Apparatus, Inc., Holliston, Mass.). […]

Data set [3] deals with Male Sprague-Dawley rats. The data set can be described thus: Mean arterial pressure after intranasal application to the SPG. The format is in vivo, rat. Here is the method: as §1, §2, §3, §4
Data set [4] concerns BBB of the rat test subjects. The data set is described as follows: BBB permeability by Evans Blue concentration in brain after intranasal topical application to the SPG. The data set is classed as in vivo. From the text:
Data are presented as mean±SEM. […] A P value of less than 0.05 was considered significant.

Data set [5] has as its system Male Sprague-Dawley rats. The data set is described as follows: Cerebral blood flow by Laser Speckle Contrast Analysis after intranasal application to the SPG. The note with it: rivastigmine-treated (1 and 2 mg/kg) vs saline. The format is in vivo, rat. The procedure: as §3
Animals anesthetized with urethane were secured into a stereotactic apparatus (David Kopf Instruments, Tujunga, Calif.) and a midline incision was made on their scalp. The skull was slowly thinned using a dremel, working in 30 second periods to minimize heat caused by friction. Cerebral blood flow was measured using Laser Speckle Contrast Analysis (LASCA) technology with a PeriCam PSI HR system (Perimed, Inc., Ardmore, Pa.), captured in real time and analyzed using PIMSoft software (Perimed).
GraphPad Instat 2.00 was used to conduct a power analysis. […] Data are presented as mean±SEM. The significance of differences for mean arterial pressure, heart rate and cerebral blood flow was estimated by 2-way analysis of variance followed by Tukey's post hoc test. One-way analysis of variance followed by Tukey's post hoc test was used to estimate significance for BBB permeability. A P value of less than 0.05 was considered significant. The statistical analysis was processed with GraphPad Prism 6.05 (GraphPad, San Diego, Calif.).

Where [6] appears, read: 1, 2 or 4 mg/kg to the SPG via intranasal cannula.

Structures are written as SMILES. “Also recorded” adds a separate entry of the source.

As for `COc1ccc2c3c1O[C@H]1C[C@@H](O)C=C[C@@]31CCN(C)C2` [galantamine], in data set [1], the solubility in water entry was “about 10 mg/mL”.

Regarding `C/C=C1\[C@H]2C=C(C)C[C@]1(N)c1ccc(=O)[nH]c1C2` [huperzine], in data set [1], the solubility in water result is “about 0.188 mg/mL”.

Take `CN(C)C(=O)Oc1cccc([N+](C)(C)C)c1` [neostigmine]: the heart rate result in the data set with Male Sprague-Dawley rats [2] (0.4 mg/kg, over time) was “slight decrease in heart rate”. Further, the mean arterial pressure entry in the data set on Male Sprague-Dawley rats [3] (0.4 mg/kg, at 15 and 30 min postadministration) is “slight decrease in mean arterial pressure”.

In the case of `CNC(=O)Oc1ccc2c(c1)[C@]1(C)CCN(C)[C@@H]1N2C` [physostigmine], the solubility in water entry in data set [1] is on record as “about 7.76 mg/mL”.

For the molecule `CCN(C)C(=O)Oc1cccc([C@H](C)N(C)C)c1` [rivastigmine], the “BBB permeability, in words” value in data set [4] (1 mg/kg compared with saline, 2 and 4 mg/kg) was “significantly higher than saline; also recorded: greatest permeabilization”; in data set [4] (Study I, 2 mg/kg rivastigmine compared with 0.4 mg/kg neostigmine), “slightly increased permeability of the BBB over neostigmine”. Besides, the “BBB permeability, in words (Evans Blue dye in the CNS)” value in data set [4] (topical administration to the SPG, overall conclusion) is recorded as “increase in BBB permeability”. In addition, the heart rate entry in the data set on Male Sprague-Dawley rats [2] (setting [6]) was “did not significantly vary”. In addition, in the data set on Male Sprague-Dawley rats [5], the cerebral blood flow entry is recorded as “No significant differences”. Besides, the solubility in water entry in data set [1] is on record as “about 2.04 mg/mL”. Moreover, the mean arterial pressure result in the data set on Male Sprague-Dawley rats [3] (setting [6]) is “did not significantly alter”.
